Measurements published in ChEMBL document CHEMBL5649166, “RIP3 induces apoptosis independent of pronecrotic kinase activity” (Mol Cell, 2014).
Active and inactive are the calls of the source. The calls are words filed in the database; no cut-off is given here.

Tests used:
[1] = biological target: T1, Receptor-interacting serine/threonine-protein kinase 3 (Homo sapiens, UniProt Q9Y572); experiment: Inhibition of recombinant human RIP3 kinase domain (1 to 328 residues) expressed in baculovirus expression system by fluorescence polarization assay
[2] = biological target: T1, Receptor-interacting serine/threonine-protein kinase 3; experiment: Inhibition of recombinant human RIP3 kinase activity by ADP-glo assay
[3] = biological target: Myosin light chain kinase 2, skeletal/cardiac muscle (Homo sapiens) (UniProt Q9H1R3); experiment: Residual activity of human MLCK2/MYLK2 using KKLNRTLSFAEPG as substrate at 1 uM in presence of 32P-ATP by Hotspot assay relative to control
[4] = biological target: T2, Inhibitor of nuclear factor kappa-B kinase subunit epsilon (Homo sapiens) (UniProt Q14164); experiment: Inhibition of human IKKe/IKBKE using casein as substrate at 1 uM in presence of 32P-ATP by Hotspot assay relative to control; values are per cent of control
T2 sequence (whole entry): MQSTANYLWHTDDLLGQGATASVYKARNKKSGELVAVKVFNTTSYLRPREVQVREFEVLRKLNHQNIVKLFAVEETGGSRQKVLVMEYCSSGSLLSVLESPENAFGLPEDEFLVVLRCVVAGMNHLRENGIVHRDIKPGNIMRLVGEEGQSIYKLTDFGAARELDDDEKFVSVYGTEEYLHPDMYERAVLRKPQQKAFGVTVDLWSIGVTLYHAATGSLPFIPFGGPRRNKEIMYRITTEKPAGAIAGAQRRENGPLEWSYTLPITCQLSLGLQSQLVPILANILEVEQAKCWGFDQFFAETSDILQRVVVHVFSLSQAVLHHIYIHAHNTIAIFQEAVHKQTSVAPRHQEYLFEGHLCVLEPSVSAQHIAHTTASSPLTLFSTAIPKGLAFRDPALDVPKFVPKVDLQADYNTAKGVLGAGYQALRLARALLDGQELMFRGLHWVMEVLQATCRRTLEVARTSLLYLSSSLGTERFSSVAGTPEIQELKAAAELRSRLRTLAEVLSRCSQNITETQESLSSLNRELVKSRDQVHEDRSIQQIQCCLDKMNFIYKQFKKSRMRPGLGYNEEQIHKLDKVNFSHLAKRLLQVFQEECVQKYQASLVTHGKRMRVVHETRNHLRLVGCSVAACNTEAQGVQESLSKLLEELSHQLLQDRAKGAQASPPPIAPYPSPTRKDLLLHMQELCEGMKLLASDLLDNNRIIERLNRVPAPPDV

[5] = biological target: T3, Serine/threonine-protein kinase 3 (Homo sapiens) (UniProt Q13188); experiment: Inhibition of human MST2/STK3 using myelin basic protein as substrate at 1 uM in presence of 32P-ATP by Hotspot assay relative to control; values are per cent of control
T3 sequence (whole entry): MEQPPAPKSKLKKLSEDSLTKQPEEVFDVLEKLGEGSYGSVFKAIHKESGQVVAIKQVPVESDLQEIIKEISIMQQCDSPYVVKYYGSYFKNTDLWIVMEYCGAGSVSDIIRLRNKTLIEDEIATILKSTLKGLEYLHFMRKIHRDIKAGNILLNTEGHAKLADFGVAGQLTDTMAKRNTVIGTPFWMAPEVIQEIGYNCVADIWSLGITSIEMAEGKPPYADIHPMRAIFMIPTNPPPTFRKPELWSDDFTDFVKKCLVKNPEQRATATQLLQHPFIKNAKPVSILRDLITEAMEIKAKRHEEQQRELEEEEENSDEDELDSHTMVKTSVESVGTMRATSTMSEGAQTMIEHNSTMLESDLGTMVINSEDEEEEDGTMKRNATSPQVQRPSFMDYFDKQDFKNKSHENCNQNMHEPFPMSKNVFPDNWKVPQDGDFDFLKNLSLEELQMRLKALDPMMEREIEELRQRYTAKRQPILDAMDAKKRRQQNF

[6] = tested on: SVEC4-10; experiment: Cytotoxicity against mouse SVEC4-10 cells assessed as induction of apoptosis at 3 to 10 uM incubated for 18 hrs by Cell Titer-Glo luminescent cell viability assay; assay type: toxicity, cell-based; settings: svec4-10, 18 h, dose 3-10 µM
[7] = tested on: L929; experiment: Cytotoxicity against mouse L929 cells assessed as induction of apoptosis at 3 to 10 uM incubated for 18 hrs by Cell Titer-Glo luminescent cell viability assay; assay type: toxicity, cell-based; settings: l929, 18 h, dose 3-10 µM
[8] = tested on: 3T3SA; experiment: Cytotoxicity against mouse 3T3SA cells assessed as induction of apoptosis at 3 to 10 uM incubated for 18 hrs by Cell Titer-Glo luminescent cell viability assay; assay type: toxicity, cell-based; settings: dose 3-10 µM
[9] = tested on: MEF; experiment: Cytotoxicity against MEF cells assessed as induction of apoptosis at 3 to 10 uM incubated for 18 hrs by Cell Titer-Glo luminescent cell viability assay; assay type: toxicity, cell-based; settings: mouse, dose 3-10 µM
[10] = tested on: SVEC4-10; experiment: Cytotoxicity against mouse SVEC4-10 cells assessed as induction of apoptosis at 10 uM incubated for 18 hrs in presence of zVAD by Cell Titer-Glo luminescent cell viability assay; assay type: toxicity, cell-based; settings: svec4-10, 18 h
[11] = tested on: L929; experiment: Cytotoxicity against mouse L929 cells assessed as induction of apoptosis at 10 uM incubated for 18 hrs in presence of zVAD by Cell Titer-Glo luminescent cell viability assay; assay type: toxicity, cell-based; settings: l929, 18 h
[12] = tested on: 3T3SA; experiment: Cytotoxicity against mouse 3T3SA cells assessed as induction of apoptosis at 10 uM incubated for 18 hrs in presence of zVAD by Cell Titer-Glo luminescent cell viability assay; assay type: toxicity, cell-based
[13] = tested on: MEF; experiment: Cytotoxicity against MEF cells assessed as induction of apoptosis at 10 uM incubated for 18 hrs in presence of zVAD by Cell Titer-Glo luminescent cell viability assay; assay type: toxicity, cell-based; settings: mouse
[14] = tested on: SVEC4-10; experiment: Inhibition of DAI-induced necroptosis in wildtype MCMV infected mouse SVEC4-10 cells assessed as increase in cell viability at 10 uM incubated for 18 hrs in presence of zVAD by Cell Titer-Glo luminescent cell viability assay; assay type: functional, cell-based
[15] = tested on: 3T3SA; experiment: Induction of apoptosis in mouse 3T3SA cells transfected with Caspase8 siRNA incubated for 2.5 hrs by Cell Titer-Glo luminescent cell viability assay; assay type: toxicity, cell-based
[16] = tested on: MEF; experiment: Induction of apoptosis in MEF cells expressing RIP1 K45A/K45A mutant incubated for 18 hrs by Cell Titer-Glo luminescent cell viability assay; assay type: toxicity, cell-based; settings: mouse
[17] = tested on: MEF; experiment: Induction of apoptosis in RIP-/- MEF cells incubated for 18 hrs by Cell Titer-Glo luminescent cell viability assay; assay type: toxicity, cell-based; settings: mouse
[18] = tested on: MEF; experiment: Induction of apoptosis in TNF-/- MEF cells incubated for 18 hrs by Cell Titer-Glo luminescent cell viability assay; assay type: toxicity, cell-based; settings: mouse
[19] = tested on: 3T3SA; experiment: Induction of apoptosis in RIP3shRNA transfected mouse 3T3SA cells co-transfected with shRNA-resistant RIP3 D143N mutant pre-tranfected for 16 hrs followed by compound addition and measured after 18 hrs in presence of zVAD by Cell Titer-Glo luminescent cell viability assay; assay type: toxicity, cell-based
[20] = tested on: 3T3SA; experiment: Induction of apoptosis in vICA expression plasmid transfected mouse 3T3SA cells co-transfected with shRNA-resistant RIP3 incubated for 12 hrs by Cell Titer-Glo luminescent cell viability assay; assay type: toxicity, cell-based
[21] = tested on: BMDM; experiment: Induction of apoptosis in mouse BMDM cells expressing wildtype RIP3 incubated for 18 hrs by Cell Titer-Glo luminescent cell viability assay; assay type: toxicity, cell-based

T1 sequence (Q9Y572 whole entry, the tested form may be a part): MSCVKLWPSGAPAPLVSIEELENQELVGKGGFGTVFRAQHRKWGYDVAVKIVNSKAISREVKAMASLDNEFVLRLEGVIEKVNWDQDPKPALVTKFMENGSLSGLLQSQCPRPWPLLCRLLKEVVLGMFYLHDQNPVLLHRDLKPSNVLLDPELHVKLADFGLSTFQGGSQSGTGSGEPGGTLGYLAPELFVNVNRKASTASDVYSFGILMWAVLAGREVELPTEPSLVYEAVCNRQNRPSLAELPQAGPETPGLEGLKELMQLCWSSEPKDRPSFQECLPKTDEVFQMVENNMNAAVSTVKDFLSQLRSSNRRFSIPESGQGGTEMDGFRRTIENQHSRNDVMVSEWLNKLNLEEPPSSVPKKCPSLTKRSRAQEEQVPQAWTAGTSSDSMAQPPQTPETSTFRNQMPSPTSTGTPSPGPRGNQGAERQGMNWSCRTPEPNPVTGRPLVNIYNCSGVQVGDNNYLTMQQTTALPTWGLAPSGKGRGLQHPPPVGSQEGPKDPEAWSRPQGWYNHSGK
Chain of Myosin light chain kinase 2, skeletal/cardiac muscle (Homo sapiens) (Q9H1R3 whole entry): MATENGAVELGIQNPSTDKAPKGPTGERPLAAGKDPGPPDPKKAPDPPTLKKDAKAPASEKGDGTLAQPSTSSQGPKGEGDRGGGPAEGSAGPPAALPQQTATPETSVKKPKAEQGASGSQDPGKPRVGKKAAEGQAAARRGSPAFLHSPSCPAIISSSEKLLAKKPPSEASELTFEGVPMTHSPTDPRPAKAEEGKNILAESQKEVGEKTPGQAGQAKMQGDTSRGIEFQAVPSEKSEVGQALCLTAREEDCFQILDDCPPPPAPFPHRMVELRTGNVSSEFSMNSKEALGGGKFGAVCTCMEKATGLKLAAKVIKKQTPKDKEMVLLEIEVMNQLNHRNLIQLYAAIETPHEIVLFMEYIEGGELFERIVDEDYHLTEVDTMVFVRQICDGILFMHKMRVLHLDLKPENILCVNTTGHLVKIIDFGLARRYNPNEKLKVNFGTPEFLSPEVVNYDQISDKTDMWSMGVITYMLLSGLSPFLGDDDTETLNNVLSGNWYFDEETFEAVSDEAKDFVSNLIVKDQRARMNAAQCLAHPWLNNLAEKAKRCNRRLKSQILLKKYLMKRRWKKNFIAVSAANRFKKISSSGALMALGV

Row | SMILES | IC50 [1] | IC50 [2] | residual activity [3] | residual activity [4] | residual activity [5] | Activity [6] | Activity [7] | Activity [8] | Activity [9] | Activity [10] | Activity [11] | Activity [12] | Activity [13] | also measured
1 | CNC(=O)c1ccc2c(c1)ncn2-c1ccc(CC(=O)OC(C)(C)C)cc1 | 0.9 nM | 0.3 nM | 88.9% | 100% | 95.2% |  |  |  |  |  |  |  |  | 
2 | Cc1cc(-c2cnc(N)c3c(-c4ccc5scnc5c4)csc23)n(C)n1 | 8.6 nM | 6.5 nM | 88.1% | 97.9% | 93.8% | Toxic | Toxic | Toxic | Toxic | Non-Toxic | Non-Toxic | Non-Toxic | Non-Toxic | 
3 | CC(C)S(=O)(=O)c1ccc2nccc(Nc3ccc4scnc4c3)c2c1 |  |  | 94.8% | 97.7% | 101% | Toxic | Toxic | Toxic | Toxic | Non-Toxic | Non-Toxic | Non-Toxic | Non-Toxic | inhibition [14]: Active; Activity [15]: Non-Toxic; Activity [16]: Non-Toxic; Activity [17]: Non-Toxic; Activity [18]: Toxic; Activity [19]: Non-Toxic; Activity [20]: Non-Toxic; Activity [21]: Toxic
